Data: US10881642B2, “Autophagy enhancer and use thereof” (Industry-Academic Cooperation Foundation, Yonsei University, priority 2016, dated 2021)
Marks after values point to notes of the source that are not given here.

How the values were obtained:
ob/ob mice [1] = experiment: Metabolic profile of ob/ob mice; assay type: in vivo
Experimental: FIG. 6A and FIG. 6B each indicates the fasting blood sugar and the body weights respectively from ob/ob mice which were treated with vehicle control or (50 mg/kg/2 days) for 8 weeks. FIG. 6C indicates the amount of feed intake from ob/ob mice which were treated with vehicle control or for 8 weeks. FIG. 6D and FIG. 6E each indicates the IPGTT results and AUC value measured after the 8 week administration. FIG. 6F and FIG. 6G indicates the ITT results and AUC value measured after the 8 week administration. FIG. 6H indicates the fasting blood sugar after the 8 week administration. FIG. 6I indicates the concentration of insulin after the 8 week administration. FIG. 6J indicate the result of HOMA-IR measured after the 8 week administration. FIG. 6K indicates the results the Insulinogenic index measured after the 8 week administration. Error bars, S.D. *, P<0.05; **, P<0.01; ***, P<0.001. Students t-test and one-way ANOVA.
FIG. 8A is the result of Hematoxylin-Eosin stained liver section from ob/ob mice treated with MSL compound or vehicle for 8 weeks. FIG. 8B is the result of measuring the concentration of TG using free glycerol reagent containing lipase in the lipid sample extracted using a mixture of chloroform/ethanol from the liver of ob/ob mice. FIG. 8C is the result of blood chemistry profile analyzed using chemical analyzer from serum sample obtained from ob/ob mice treated with MSL compound or vehicle for 8 weeks. FIG. 8D is the result of Hematoxylin-Eosin stained white adipose tissue section from ob/ob mice treated with MSL compound or vehicle for 8 weeks. FIG. 8E is the immuno-stained result of F4/80+ cells from white adipose tissue (left) and the quantification result of adipose cell F4/80+ CLS (right) indicated as a frequency of CLS (crown-like structures) in the white adipose tissue of the mice as described above. FIG. 8F is the result of quantifying the expression of WAT gene from the mice as described above using RT-PCR. Error bars, S.D. *, P<0.05; **, P<0.01; ***, P<0.001.
FIG. 11A is the result of fasting glucose concentration of ob/ob mice administered with vehicle control or MSL-7 (50 mg/kg/2 days) for 8 weeks. FIG. 11B is the body weight monitored of the mice of FIG. 11A. FIG. 11C is the result of experiments performed at 8 weeks after the administration of IPGTT (FIG. 1 IC) and ITT (FIG. 11D). FIG. 11E is the results of measuring blood chemistry profile of the ob/ob mice administered with vehicle control or MSL-7 compound for 8 weeks using chemical analyzer. Error bars, S.D. *, P<0.05; **, P<0.01; ***, P<0.001. Students t-test and one-way ANOVA. […]
We next studied whether MSL can activate autophagic flux in vivo. When we administered MSL after pretreatment with leupeptin (Ueno, T et al. (1991) Membrane markers of endoplasmic reticulum preserved in autophagic vacuolar membranes isolated from leupeptin-administered rat liver. J Biol Chem 266, 18995-18999), LC3-I to -II conversion was increased in the liver, supporting that MSL can increase autophagic flux in vivo. We next studied whether MSL administration can improve metabolic profile associated with obesity. We treated ob/ob mice with MSL at 50 mg/kg for 8 weeks.

[2] = Liver microsomal stability; assay type: in vitro ADME; settings: 30 min incubation with human liver microsome, 10 μM
calcineurin = experiment: Calcineurin phosphatase activity assay; assay type: cell-based; settings: lysates of Hepa1c1c7 cells
ob/ob mice [3] = experiment: Toxicity: hemogram, blood chemistry and organ biopsy in ob/ob mice; assay type: in vivo; design: BUN: unit not given here; settings: for level of liver enzymes: 8-week treatment; for CBC / fatty liver (major organ biopsy) / tissue histology of major organs (heart, kidney, muscle, spleen, lung, pancreas): 8 weeks; for tissue histology of major organs (heart, kidney, muscle, spleen, lung, pancreas): biopsy; for ALB / ALP / ALT / AST / BUN / CA / CPK / CRE / DBIL / GGT / LDH / TCHO / TG: blood chemistry; for BASO / EOS / MONO / NEU / LYM / WBC / RBC / HGB / HCT / PLT: hemogram; for BASO / EOS: normal range 0.0-0.2; for MONO: normal range 0.0-0.4; for NEU: normal range 0.1-2.4; for LYM: normal range 0.9-9.3; for WBC: normal range 1.8-10.7; for RBC: normal range 6.36-9.42; for HGB: normal range 11.0-15.1; for HCT: normal range 38.5-59.0; for PLT: normal range 592-2972
Experimental: Organs were harvested from ob/ob mice administered with MSL or MSL-7 for 8 weeks and stained with H&E for histological analysis. […] Other than that, no significant changes were observed (Scale Bar. 500 μm). […]
Finally, we studied whether MSL or MSL-7 has systemic toxicity. CBC was not changed by MSL or MSL-7 (Table 1).
Finally, in the present disclosure, the toxicity of the present enhancers were tested. The 8-week treatment of MSL or MSL-7 improved the metabolic profile, and reduced the level of liver enzymes (Table 1 below). […] In the major organ biopsy, there were found no side effects. Rather the fatty liver was improved (FIG. 14).
Table 1 indicates the hemogram and blood chemistry analyzed after administration of the present autophagy enhancer for 8 week in vivo. […] Other than that, there are no adverse changes were found.

COc1oc(-c2ccccc2Cl)nc1S(=O)(=O)c1ccccc1 [MSL-7, 2-(2-chlorophenyl)-5-methoxy-4-(phenylsulfonyl) oxazole]
body weight (ob/ob mice [1]; 50 mg/kg, 8 weeks): without significant effect on body weight
non-fasting blood glucose level (ob/ob mice [1]; 50 mg/kg, 8 weeks): significantly improved
glucose tolerance (IPGTT) (ob/ob mice [1]; 8 weeks): significantly improved
insulin sensitivity (ITT) (ob/ob mice [1]; 8 weeks): significantly improved
microsomal stability, remaining [2]: 90.5%
calcineurin activity (calcineurin): calcineurin activation in a dose-dependent manner
level of liver enzymes (ob/ob mice [3]): reduced
serum TG level and LDH level compared to MSL (ob/ob mice [3]; 8 week): significantly lower
CBC (ob/ob mice [3]): not changed
fatty liver (major organ biopsy) (ob/ob mice [3]): improved
tissue histology of major organs (heart, kidney, muscle, spleen, lung, pancreas) (ob/ob mice [3]): no significant alteration
ALB (ob/ob mice [3]; 8 week): 1.1 ± 1.0 g/dL
ALP (ob/ob mice [3]; 8 week): 278 ± 26.11^b U/L
ALT (ob/ob mice [3]; 8 week): 146.9 ± 21.59^b U/L
AST (ob/ob mice [3]; 8 week): 153.8 ± 12.81^b U/L
BUN (ob/ob mice [3]; 8 week): 20 ± 0.89
CA (ob/ob mice [3]; 8 week): 10.75 ± 0.32 mg/dL
CPK (ob/ob mice [3]; 8 week): 241.3 ± 18.19 U/L
CRE (ob/ob mice [3]; 8 week): 1 ± 0 mg/dL
DBIL (ob/ob mice [3]; 8 week): <0.5 mg/dL
GGT (ob/ob mice [3]; 8 week): <5 U/L
LDH (ob/ob mice [3]; 8 week): 810 ± 112.40^c U/L
TCHO (ob/ob mice [3]; 8 week): 136.9 ± 9.73 mg/dL
TG (ob/ob mice [3]; 8 week): 78.6 ± 22.50^b mg/dL
BASO (ob/ob mice [3]; 8 week): 0.01 ± 0.01 K/μL
EOS (ob/ob mice [3]; 8 week): 0.04 ± 0.01 K/μL
MONO (ob/ob mice [3]; 8 week): 0.28 ± 0.05 K/μL
NEU (ob/ob mice [3]; 8 week): 1.97 ± 0.16 K/μL
LYM (ob/ob mice [3]; 8 week): 3.97 ± 0.38 K/μL
WBC (ob/ob mice [3]; 8 week): 6.26 ± 0.52 K/μL
RBC (ob/ob mice [3]; 8 week): 9.22 ± 0.12 M/μL
HGB (ob/ob mice [3]; 8 week): 13.60 ± 0.19 g/dL
HCT (ob/ob mice [3]; 8 week): 49.25 ± 0.78%
PLT (ob/ob mice [3]; 8 week): 1031 ± 55 K/μL

CSc1oc(-c2ccccc2)nc1S(=O)(=O)c1ccc(F)cc1 [MSL]
Food intake (ob/ob mice [1]; 50 mg/kg, 8 weeks): not affected
body weight (ob/ob mice [1]; 50 mg/kg, 8 weeks): not affected
non-fasting blood glucose level (ob/ob mice [1]; 50 mg/kg, 8 weeks): significantly decreased
AUC of IPGTT and ITT (ob/ob mice [1]; 8 weeks): reduced
Fasting blood glucose levels (ob/ob mice [1]; 8 weeks): significantly improved
HOMA-IR index (ob/ob mice [1]; 8 weeks): slightly decreased
Serum ALT/ASL levels (ob/ob mice [1]; 8 weeks): significantly reduced
glucose tolerance (IPGTT) (ob/ob mice [1]; 8 weeks): significant improvement
insulin sensitivity (ITT) (ob/ob mice [1]; 8 weeks): significant improvement
number of crown-like structures (CLSs) in WAT (ob/ob mice [1]; 8 weeks): significantly decreased
accumulation of lipid droplets in the liver (ob/ob mice [1]; 8 weeks, H&E): apparently reduced
expression of inflammatory markers (Tnfa, I-16, II-1β, F4/80), real-time RT-PCR (ob/ob mice [1]; WAT, 8 weeks): significantly reduced
liver lipid content (Oil Red O staining) (ob/ob mice [1]; data not shown): decreased
microsomal stability, remaining [2]: less than 10%
calcineurin activity (calcineurin): significantly increased
level of liver enzymes (ob/ob mice [3]): reduced
CBC (ob/ob mice [3]): not changed
fatty liver (major organ biopsy) (ob/ob mice [3]): improved
tissue histology of major organs (heart, kidney, muscle, spleen, lung, pancreas) (ob/ob mice [3]): no significant alteration
ALB (ob/ob mice [3]; 8 week): 1.1 ± 0.10 g/dL
ALP (ob/ob mice [3]; 8 week): 267 ± 35.02^b U/L
ALT (ob/ob mice [3]; 8 week): 183.7 ± 35.71^b U/L
AST (ob/ob mice [3]; 8 week): 158.1 ± 16.39^c U/L
BUN (ob/ob mice [3]; 8 week): 21.13 ± 1.38
CA (ob/ob mice [3]; 8 week): 11.13 ± 0.24 mg/dL
CPK (ob/ob mice [3]; 8 week): 323.8 ± 29.68 U/L
CRE (ob/ob mice [3]; 8 week): 0.75 ± 0.14 mg/dL
DBIL (ob/ob mice [3]; 8 week): <0.5 mg/dL
GGT (ob/ob mice [3]; 8 week): <5 U/L
LDH (ob/ob mice [3]; 8 week): 1428 ± 148.90^b U/L
TCHO (ob/ob mice [3]; 8 week): 150 ± 12.22 mg/dL
TG (ob/ob mice [3]; 8 week): 13.9 ± 16.41^a mg/dL
BASO (ob/ob mice [3]; 8 week): 0.05 ± 0.01 K/μL
EOS (ob/ob mice [3]; 8 week): 0.165 ± 0.06 K/μL
MONO (ob/ob mice [3]; 8 week): 0.35 ± 0.109 K/μL
NEU (ob/ob mice [3]; 8 week): 2.34 ± 0.51 K/μL
LYM (ob/ob mice [3]; 8 week): 4.73 ± 0.95 K/μL
WBC (ob/ob mice [3]; 8 week): 7.64 ± 1.54 K/μL
RBC (ob/ob mice [3]; 8 week): 8.82 ± 0.54 M/μL
HGB (ob/ob mice [3]; 8 week): 14.30 ± 0.56 g/dL
HCT (ob/ob mice [3]; 8 week): 46.9 ± 2.4%
PLT (ob/ob mice [3]; 8 week): 1081 ± 61 K/μL
